Reference: PubChem BioAssay (NCI)
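These data come from cells grown in 96-well plates and exposed to compound for 48 hours at five concentrations. TGI: concentration producing complete growth inhibition.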

Columns and labels:
Assay in all cases: inhibition of tumour cell growth, NCI panel, 48 h
SK-MEL-28 melanoma = test system: SK-MEL-28 melanoma
ACHN renal = test system: ACHN renal
SNB-19 CNS = test system: SNB-19 CNS
SF-539 CNS = test system: SF-539 CNS
OVCAR-5 ovarian = test system: OVCAR-5 ovarian
SK-MEL-2 melanoma = test system: SK-MEL-2 melanoma
KM12 colon = test system: KM12 colon
OVCAR-8 ovarian = test system: OVCAR-8 ovarian
COLO 205 colon = test system: COLO 205 colon
SF-295 CNS = test system: SF-295 CNS
MALME-3M melanoma = test system: MALME-3M melanoma
EKVX NSCLC = test system: EKVX NSCLC
M14 melanoma = test system: M14 melanoma
PC-3 prostate = test system: PC-3 prostate
T-47D breast = test system: T-47D breast
NCI-H226 lung = test system: NCI-H226 lung
HCC-2998 colon = test system: HCC-2998 colon

Compound | TGI (SK-MEL-28 melanoma) | TGI (ACHN renal) | TGI (SNB-19 CNS) | TGI (SF-539 CNS) | TGI (OVCAR-5 ovarian) | TGI (SK-MEL-2 melanoma) | TGI (KM12 colon) | TGI (OVCAR-8 ovarian) | TGI (COLO 205 colon) | TGI (SF-295 CNS) | TGI (MALME-3M melanoma) | TGI (EKVX NSCLC) | TGI (M14 melanoma) | TGI (PC-3 prostate) | TGI (T-47D breast) | TGI (NCI-H226 lung) | TGI (HCC-2998 colon)
CN(C)c1ccc(/C=C2\C[C@H]3[C@@H]4CC=C5C[C@@H](O)CC[C@]5(C)[C@H]4CC[C@]3(C)[C@H]2O)cc1 | 44.9 µM | 30.7 µM | 37.1 µM | 22.1 µM | 36.2 µM | 42.9 µM | > 100 µM | 13.1 µM | 23 µM | 44.8 µM | 38.4 µM | 23.8 µM | 41.3 µM | 25.8 µM | 76.6 µM | 34.7 µM | –
COc1cc(CO)cc2c1[nH]c1ccccc12 | > 25 µM | > 25 µM | > 25 µM | > 25 µM | > 25 µM | > 25 µM | > 25 µM | > 25 µM | > 25 µM | – | > 25 µM | – | > 25 µM | – | – | 5.27 µM | > 25 µM
Cc1ccc([N+](=O)[O-])cc1NC(=O)/C(CC(=O)c1sc(C(N)=S)nc1C)=N\N | > 100 µM | > 100 µM | > 100 µM | > 100 µM | > 100 µM | > 100 µM | > 100 µM | > 100 µM | – | > 100 µM | > 100 µM | > 100 µM | > 100 µM | – | – | – | > 100 µM
c1ccc(C[N+]23C(CC[C@H]2c2ccccc2)CC[C@H]3c2ccccc2)cc1 (stereo partly specified) | > 100 µM | > 100 µM | > 100 µM | – | > 100 µM | > 100 µM | 78 µM | > 100 µM | 31.2 µM | > 100 µM | > 100 µM | > 100 µM | 93 µM | > 100 µM | > 100 µM | 87.8 µM | –
O=C(O)c1ccc2[nH]c(=O)oc2c1 | > 100 µM | > 100 µM | > 100 µM | > 100 µM | > 100 µM | > 100 µM | > 100 µM | > 100 µM | > 100 µM | > 100 µM | > 100 µM | > 100 µM | > 100 µM | > 100 µM | – | > 100 µM | –
O=C(O)C(C(F)(F)F)C(F)(F)F (tested in a mixture with another compound) | > 100 µM | > 100 µM | > 100 µM | > 100 µM | > 100 µM | > 100 µM | > 100 µM | > 100 µM | > 100 µM | > 100 µM | > 100 µM | > 100 µM | > 100 µM | > 100 µM | > 100 µM | > 100 µM | –
C[C@@H]1C[C@@H]2C(=O)N(c3ccccc3)C(=O)[C@@H]2c2[nH]c3ccc(Br)cc3c21 | > 100 µM | > 100 µM | > 100 µM | > 100 µM | > 100 µM | > 100 µM | 75.4 µM | 47.1 µM | > 100 µM | 90.9 µM | > 100 µM | > 100 µM | > 100 µM | – | – | – | > 100 µM
CC(CCCCNC(=O)OC(C)(C)C)NC(=O)NC(C)CCCCNC(=O)OC(C)(C)C (stereo unspecified) | > 100 µM | > 100 µM | > 100 µM | – | > 100 µM | – | > 100 µM | > 100 µM | > 100 µM | > 100 µM | > 100 µM | > 100 µM | > 100 µM | > 100 µM | > 100 µM | > 100 µM | –
N#CC(C(=S)Nc1ccccc1)=C1Nc2ccccc2N1 | > 10 µM | > 10 µM | > 10 µM | > 10 µM | > 10 µM | > 10 µM | > 10 µM | > 10 µM | > 10 µM | – | > 10 µM | > 10 µM | > 10 µM | – | – | > 10 µM | > 10 µM
CNc1cc(Cl)ccc1C(=O)N1CCC[C@H]1CO | > 100 µM | > 100 µM | > 100 µM | > 100 µM | > 100 µM | > 100 µM | > 100 µM | > 100 µM | > 100 µM | > 100 µM | > 100 µM | > 100 µM | > 100 µM | > 100 µM | > 100 µM | > 100 µM | –
COc1cc(S(=O)(=O)Nc2ccc(-c3csc(/N=C\c4cccc(Oc5ccccc5)c4)n3)cc2)ccc1Cl | > 100 µM | 71.8 µM | > 100 µM | > 100 µM | > 100 µM | > 100 µM | > 100 µM | 61.9 µM | > 100 µM | > 100 µM | > 100 µM | 81.4 µM | > 100 µM | > 100 µM | 34.4 µM | > 100 µM | –
CCOC1Oc2ccccc2-c2nc(N)ncc21 (stereo unspecified) | – | > 100 µM | > 100 µM | > 100 µM | > 100 µM | > 100 µM | > 100 µM | > 100 µM | > 100 µM | > 100 µM | – | > 100 µM | > 100 µM | > 100 µM | > 100 µM | > 100 µM | –
NC(=S)N/N=C(/CCN1CCCC1)CC(C1=C(O)C2=CCCCC2OC1=O)c1ccccc1 (stereo unspecified) | – | > 100 µM | > 100 µM | > 100 µM | > 100 µM | > 100 µM | > 100 µM | > 100 µM | > 100 µM | > 100 µM | > 100 µM | > 100 µM | > 100 µM | – | – | > 100 µM | > 100 µM
COc1ccc([C@H]2[C@@H]3CCc4ccccc4C3=NN2C(N)=S)cc1OC | > 100 µM | > 100 µM | > 100 µM | > 100 µM | > 100 µM | > 100 µM | > 100 µM | > 100 µM | – | – | > 100 µM | > 100 µM | > 100 µM | – | – | > 100 µM | > 100 µM
O=C(Cn1c2c(c3ccccc31)CCCC2)N1CCOCC1 | – | > 100 µM | > 100 µM | > 100 µM | > 100 µM | > 100 µM | – | > 100 µM | > 100 µM | > 100 µM | > 100 µM | > 100 µM | > 100 µM | > 100 µM | – | – | > 100 µM
Cc1[nH]c2[nH]c(=S)nc(NC(N)=S)c2c1Cc1ccccc1 | 48.6 µM | > 100 µM | > 100 µM | > 100 µM | > 100 µM | > 100 µM | 40.7 µM | > 100 µM | 34 µM | > 100 µM | – | > 100 µM | > 100 µM | > 100 µM | 89.4 µM | > 100 µM | –
